In the C3SDB collision cross section collection:
Values joined by “and” are separate entries in the source; they are usually repeats but may differ in a detail not shown here. Equal entries are not always repeated.

Settings: instrument: DT, single field, calibrated with ESI Low Concentration Tuning Mix (Agilent)

SMILES | collision cross section (N2) ([M+H]+) | collision cross section (N2) ([M-H]-) | collision cross section (N2) ([M+Na]+) | collision cross section (N2) ([M+Na-2H]-) | collision cross section (N2) ([M+K]+) [Å²] | collision cross section (N2) ([M+H2O-H]-) [Å²]
CCCCC(CC)COC(=O)c1ccccc1C(=O)OCC(CC)CCCC (stereo not drawn) [BIS(2-ETHYLHEXYL)PHTHALATE] | 212.2 Å² | – | – | – | – | 203
Nc1ccccc1O [2-AMINOPHENOL] | 118.3 Å² and 124.8 Å² | 118 Å² | – | – | – | –
CC(=O)N[C@@H](CC(=O)O)C(=O)O [N-ACETYLASPARTATE] | – | 131 Å² | 139.3 Å² | – | – | –
OC1OC[C@@H](O)[C@H](O)[C@@H]1O (stereo partly drawn) [LYXOSE] | – | – | 136.8 Å² | – | – | –
C[C@H](CCC(=O)O)[C@H]1CC[C@H]2[C@@H]3[C@H](O)C[C@@H]4C[C@H](O)CC[C@]4(C)[C@H]3C[C@H](O)[C@]12C [CHOLATE] | – | 203.1 Å² | 197.5 Å² | – | – | –
CCCCCCCCCCCCCCCC(=O)O [PALMITATE] | – | – | 173.2 Å² | – | – | –
N[C@@H](Cc1c[nH]c2ccccc12)C(=O)O [TRYPTOPHAN] | 150.1 Å² and 150.3 Å² | 142.3 Å² and 142.5 Å² and 151.5 Å² | 147.6 Å² and 147.7 Å² | – | – | –
C[C@H](CCC(=O)NCCS(=O)(=O)O)[C@H]1CC[C@H]2[C@@H]3CC[C@@H]4C[C@H](O)CC[C@]4(C)[C@H]3CC[C@]12C [LITHOCHOLYLTAURINE] | – | 206.6 Å² | 213.1 Å² | – | – | –
NC(CCO)C(=O)O (stereo not drawn) [HOMOSERINE] | 125.9 Å² | 120.2 Å² | – | – | – | –
CC(=O)OC[C@H](N)C(=O)O [O-ACETYLSERINE] | 130.5 Å² | – | – | – | – | –
CNC[C@H](O)c1ccc(O)c(O)c1 [EPINEPHRINE] | – | 140.1 Å² | – | – | – | –
CC(=O)c1ccc(O)cc1O [2',4'-DIHYDROXYACETOPHENONE] | 127.2 Å² | 126.3 Å² | – | – | – | –
O=C(O)C1CCCCN1 (stereo not drawn) [PIPECOLATE] | 127.7 Å² and 128 Å² | 128.3 Å² and 128.9 Å² | 138.8 Å² and 139.4 Å² | – | – | –
CC(C)[C@H](N)C(=O)O [VALINE] | 120.9 Å² | 124.3 Å² | 133.4 Å² | – | – | –
O=C(O)Cc1cnc[nH]1 [4-IMIDAZOLEACETATE] | 123.9 Å² | – | – | – | – | –
CC(=O)NC(Cc1ccccc1)C(=O)O (stereo not drawn) [N-ACETYLPHENYLALANINE] | – | 146.9 Å² | 149.4 Å² | – | – | –

SMILES | collision cross section (N2) ([M+H]+) | collision cross section (N2) ([M-H]-) | collision cross section (N2) ([M+Na]+) | collision cross section (N2) ([M+Na-2H]-) | collision cross section (N2) ([M+K]+) [Å²] | collision cross section (N2) ([M+H2O-H]-) [Å²]
O=C(O)CNC(=O)c1ccccc1 [HIPPURATE] | – | 142 Å² | 149.6 Å² | – | – | –
NC[C@H](O)CC[C@H](N)C(=O)O [5-HYDROXYLYSINE] | 134.9 Å² | 134 Å² | 137.5 Å² | – | – | –
NCCCC[C@H](N)C(=O)O [LYSINE] | 131.2 Å² and 131.4 Å² | 133.5 Å² and 133.7 Å² | 135.5 Å² | – | – | –
C[C@]12CCC(=O)C=C1CC[C@@H]1[C@@H]2CC[C@@]2(C)[C@H]1CC[C@]2(O)C(=O)CO [CORTEXOLONE] | 187.7 Å² | – | 211 Å² | – | – | –
O=C(O)CCC(=O)C(=O)O [OXOGLUTARATE] | – | 120.9 Å² | – | – | – | –
O=C1CC(C(=O)O)NC(=O)N1 (stereo not drawn) [DIHYDROOROTATE] | – | 125.2 Å² | – | – | – | –
N[C@@H](CCC(=O)N[C@@H](CS)C(=O)NCC(=O)O)C(=O)O [GLUTATHIONE REDUCED] | 167.8 Å² | 162.1 Å² | 167 Å² | 164.8 Å² | – | –
Cn1cncc1CCN [3-METHYLHISTAMINE] | 123.8 Å² | – | – | – | – | –
OC[C@@H](O)[C@@H](O)[C@H](O)[C@@H](O)CO [SORBITOL] | – | 131.4 Å² | 142.9 Å² | – | – | –
O=C(O)/C=C/c1cnc[nH]1 [UROCANATE] | 134.6 Å² | 120.9 Å² | – | – | – | –
O=C(O)C(O)c1ccc(O)c(O)c1 (stereo not drawn) [3,4 DIHYDROXYMANDELATE] | – | 137.4 Å² | – | – | – | –
O=C(O)/C=C/c1ccc(O)cc1 [4-COUMARATE] | – | 131.1 Å² | – | – | – | –
N[C@@H](CC(=O)O)C(=O)O [ASPARTATE] | – | 118.6 Å² and 118.7 Å² | – | – | – | –
CCCCCCCCCCCCCCCC(=O)O[C@H]1CC[C@@]2(C)C(=CC[C@H]3[C@@H]4CC[C@H]([C@H](C)CCCC(C)C)[C@@]4(C)CC[C@@H]32)C1 [CHOLESTERYL PALMITATE] | – | – | 286.3 Å² | – | – | –
CSCC[C@H](NC=O)C(=O)O [N-FORMYL-L-METHIONINE] | – | 136.1 Å² | 145.3 Å² | – | – | –
CC(C)(CO)[C@@H](O)C(=O)NCCC(=O)O [PANTOTHENATE] | 129.9 Å² | – | – | – | – | –

Second part, led by results:

collision cross section (N2) ([M+H]+) | collision cross section (N2) ([M-H]-) | collision cross section (N2) ([M+Na]+) | collision cross section (N2) ([M+Na-2H]-) | collision cross section (N2) ([M+K]+) [Å²] | SMILES | collision cross section (N2) ([M+H2O-H]-) [Å²]
– | 127.5 Å² | – | 135.1 Å² | – | N[C@@H](COP(=O)(O)O)C(=O)O [PHOSPHOSERINE] | –
162.5 Å² and 170.7 Å² | 166.9 Å² | 172.4 Å² | – | – | CSC[C@H]1O[C@@H](n2cnc3c(N)ncnc32)[C@H](O)[C@@H]1O [METHYLTHIOADENOSINE] | –
– | – | 140.8 Å² | – | – | N[C@@H](COP(=O)(O)O)C(=O)O [O-PHOSPHOSERINE] | –
– | 154.1 Å² | 161.6 Å² | – | – | Cc1cn([C@H]2C[C@H](O)[C@@H](CO)O2)c(=O)[nH]c1=O [THYMIDINE] | –
– | – | 146.6 Å² | – | – | OC[C@H]1O[C@H](O)[C@H](O)[C@@H](O)[C@@H]1O [ALPHA-D-GLUCOSE] | –
– | 148.7 Å² | 158.3 Å² | – | – | O=P(O)(O)OC1O[C@H](CO)[C@@H](O)[C@H](O)[C@H]1O (stereo partly drawn) [GLUCOSE 1-PHOSPHATE] | –
– | 126.3 Å² | 140.5 Å² | 147.2 Å² | – | O=P(O)(O)OC(CO)CO [BETA-GLYCEROPHOSPHATE] | –
175.6 Å² | 174.2 Å² | 179.9 Å² | 176.3 Å² | – | Nc1ccn([C@@H]2O[C@H](COP(=O)(O)OP(=O)(O)O)[C@@H](O)[C@H]2O)c(=O)n1 [CYTIDINE DIPHOSPHATE] | –
– | 146.5 Å² and 146.6 Å² | 158.1 Å² | 156.9 Å² | – | O=P(O)(O)OC[C@H]1OC(O)[C@H](O)[C@@H](O)[C@@H]1O (stereo partly drawn) [GLUCOSE 6-PHOSPHATE] | –
165.7 Å² | 161.2 Å² | 172.3 Å² | 163.6 Å² | – | O=c1ccn([C@@H]2O[C@H](COP(=O)(O)O)[C@@H](O)[C@H]2O)c(=O)[nH]1 [URIDINE MONOPHOSPHATE] | –
122.1 Å² | 119 Å² | – | – | – | Cc1c[nH]c(=O)[nH]c1=O [THYMINE] | –
186.9 Å² | 186.8 Å² | – | – | 208.4 | C[C@]12C[C@H](O)[C@H]3[C@@H](CCC4=CC(=O)CC[C@@]43C)[C@@H]1CC[C@@H]2C(=O)CO [CORTICOSTERONE] | –
– | 127.8 Å² | – | – | – | O=C1O[C@H]([C@@H](O)CO)C(=O)C1=O [DEHYDROASCORBATE] | –
188.6 Å² | 191.9 Å² | 212.9 Å² | – | 210.7 | C[C@]12CCC(=O)C=C1CC[C@@H]1[C@@H]2[C@@H](O)C[C@@]2(C)[C@H]1CC[C@]2(O)C(=O)CO [CORTISOL] | –
210.5 Å² | 224 Å² | 218.1 Å² | 227.9 Å² | – | CC(=O)N[C@H]1[C@H](OP(=O)(O)OP(=O)(O)OC[C@H]2O[C@@H](n3ccc(=O)[nH]c3=O)[C@H](O)[C@@H]2O)O[C@H](CO)[C@@H](O)[C@@H]1O [URIDINE DIPHOSPHATE-N-ACETYLGLUCOSAMINE] | –
198.3 Å² | 205.9 Å² | 207.8 Å² | 210.2 Å² | – | C[N+](C)(C)CCOP(=O)([O-])OP(=O)(O)OC[C@H]1O[C@@H](n2ccc(N)nc2=O)[C@H](O)[C@@H]1O [CITICOLINE] | –
160 Å² and 164.7 Å² | 162.7 Å² | 170.7 Å² | – | – | Cn1cnc2c(ncn2[C@@H]2O[C@H](CO)[C@@H](O)[C@H]2O)c1=N [1-METHYLADENOSINE] | –
215.8 Å² | 195.4 Å² | – | 201.3 Å² | – | O=P(O)(O)OC1C(OP(=O)(O)O)C(OP(=O)(O)O)C(OP(=O)(O)O)C(OP(=O)(O)O)C1OP(=O)(O)O (stereo not drawn) [PHYTATE] | –
– | 209.5 Å² | 209.9 Å² | 218.2 Å² | – | Cc1cn([C@H]2C[C@H](O)[C@@H](COP(=O)(O)OP(=O)(O)OC3O[C@H](CO)[C@@H](O)[C@H](O)[C@H]3O)O2)c(=O)[nH]c1=O (stereo partly drawn) [DTDP-D-GLUCOSE] | –
188.5 Å² | 180.8 Å² | 185.2 Å² | 177.5 Å² and 185.6 Å² | – | Nc1nc(=O)c2ncn([C@H]3C[C@H](O)[C@@H](COP(=O)(O)OP(=O)(O)O)O3)c2[nH]1 [DGDP] | –
– | 159.1 Å² | 171.7 Å² | – | 171.4 | Nc1nc(=O)c2ncn([C@H]3C[C@H](O)[C@@H](CO)O3)c2[nH]1 [DEOXYGUANOSINE] | –
– | 123 Å² | – | – | – | NCCOP(=O)(O)O [ETHANOLAMINE PHOSPHATE] | –
